# Like-named read-outs stand apart in the source and are kept apart here.
# How the values were obtained:
# [1] = test system: Pseudoalteromonas ulvae (TC14); experiment: Anti-adhesion test, strain TC14; assay type: cell-based; details: for activity at 200 µM / EC50: Pseudoalteromonas ulvae; for activity at 200 µM: 15 h; for EC50: read-out: EC50 (effective concentration to inhibit 50% of the adhesion)
# Protocol: (§1) Bacterial strains were grown on Väätänen nine-salts solution (VNSS). When the stationary phase was reached, the bacterial suspension was centrifuged. Cells were then diluted in sterile artificial sea water (ASW) and introduced in microtiter plates (sterile black PS; Nunc, Fisher Scientific, France) with the tested compound (at eight concentrations in three replicates) in the presence of three controls: (i) non-specific staining control, (ii) adhesion control, and (iii) positive control. The maximum percentage of solvent (DMSO 2%) used to dilute the tested compound was also tested in triplicate as additional control. After incubation during an optimized adhesion time (moderately 15 h), non-adhered bacteria were eliminated and adhered cells were quantified after SYTO 61 (1 μM) staining. A percentage of inhibition was calculated per well. A sigmoid dose-response curve was obtained by plotting the percentage of inhibition as a function of the log of tested compound concentration, after mean (n=3) and standard deviation (SD) calculation per triplicate for each concentration. EC50 values were then calculated for each compound.
# (§2) Pseudoalteromonas ulvae (TC14) was isolated in June 2010 in the Military Harbor of Toulon (Mediterranean Sea, France) as described in F. Brian-Jaisson, A. Ortalo-Magné, L. Guentas-Dombrowsky, F. Armougom, Y. Blache, M. Molmeret, Microb. Ecol., 2014, 68, 94-110.
# Paracoccus sp. (4M6) [2] = experiment: Anti-adhesion test, strain 4M6; assay type: cell-based; details: Paracoccus; for activity at 200 µM: 15 h, read-out: % of adhesion at 200 μM, 4M6; for EC50: read-out: EC50 (effective concentration to inhibit 50% of the adhesion), 4M6
# Protocol: (§3) The anti-adhesion bioassays and toxicity tests are adapted from those disclosed in M. Camps, J.-F. Briand, L. Guentas-Dombrowsky, G. Culioli, A. Bazire and Y. Blache, Mar. Poll.
# as §1
# [3] = Gravimetry (weight loss), corrosion inhibition; details: mild steel in 1N HCl
# Protocol: The corrosion rates were determined by electrochemical impedance spectroscopy measurements and gravimetry.
# Weight loss measurements were performed on 2.5×2.0×0.1 cm rectangular mild steel coupons. The mild steel coupons were immersed into non-de-aerated HCl 1N solution in absence and presence of different concentrations of compounds of general formula (I). After the elapsed time, the coupons were taken out, washed, dried and weighed accurately. Experiments were duplicated.
# Weight loss experiments were done to confirm the corrosion inhibitive properties of AS164.
# The inhibition efficiency, IE (%), was estimated from the weight loss experiments using the following equation:
# [formula] wherein CR^o and CR are respectively the corrosion rate in the absence and presence of AS164.
# [4] = test system: Pseudoalteromonas lipolytica (TC8); experiment: Anti-adhesion test, strain TC8; assay type: cell-based; details: Pseudoalteromonas lipolytica; for activity at 200 µM: 15 h, read-out: % of adhesion at 200 μM, TC8; for EC50: read-out: EC50 (effective concentration to inhibit 50% of the adhesion), TC8
# Protocol: as §3, §1
# [5] = test system: Pseudoalteromonas lipolytica (TC8); experiment: microbe, parasite or virus in culture; details: for CC50: Pseudoalteromonas lipolytica, read-out: LC50 (necessary concentration to kill 50% of the bacteria), TC8; for IS: LC50/EC50 (selectivity index), TC8: strain TC8
# Source text: as §3
# (§4) After growth on VNSS, bacterial strains were harvested during the exponential phase. The microtiter plates (sterile transparent PS; Nunc, Fisher Scientific) were filled as described in the Anti-adhesion test method using VNSS instead of ASW to allow bacterial growth. The growth was followed by measuring the turbidity (OD600 nm) every hour during 6 or 7 hours. Then, resazurin (50 μM) was added in all the wells, and fluorescence was measured after 2 h to quantify the percent of bacterial viability. The same methodology used with SYTO 61 was applied to calculate a percent of viability after resazurin staining.
# Paracoccus sp. (4M6) [6] = experiment: microbe, parasite or virus in culture; details: for CC50: Paracoccus, read-out: LC50 (necessary concentration to kill 50% of the bacteria), 4M6; for IS: LC50/EC50 (selectivity index), 4M6: strain 4M6
# Source text: as §3, §4
# [7] = test system: Pseudoalteromonas ulvae (TC14); experiment: Toxicity test, strain TC14; assay type: cell-based
# Source text: as §2
# [8] = test system: marine bacterial strains (TC14, TC8, 4M6, TC5 and TC11); experiment: Anti-adhesion test, summary over the strains; assay type: cell-based; details: for EC50 compared with TBTO/ZINEB: comparison with reference biocides
# Protocol: as §1
# (§5) In examples 64 and 65, the following marine bacterial strains are used.
# Shewanella sp. (TC11) [9] = experiment: Toxicity test, strain TC11; assay type: cell-based
# Source text: (§6) Shewanella sp. (TC11) was isolated in June 2010 in the Military Harbor of Toulon (Mediterranean Sea, France) as described in F. Brian-Jaisson, A. Ortalo-Magné, L. Guentas-Dombrowsky, F. Armougom, Y. Blache, M. Molmeret, Microb. Ecol., 2014, 68, 94-110.
# [10] = test system: marine bacterial strains (TC14, TC8, 4M6, TC5 and TC11); experiment: Toxicity test, summary over the strains; assay type: cell-based; details: comparison with reference biocides
# Source text: as §5
# Shewanella sp. (TC11) [11] = experiment: Anti-adhesion test, strain TC11; assay type: cell-based; details: for activity at 200 µM: 15 h, strain TC11, read-out: % of adhesion at 200 μM, TC11; for EC50: read-out: EC50 (effective concentration to inhibit 50% of the adhesion), strain TC11
# Protocol: as §1, §6
# Polaribacter sp. (TC5) [12] = experiment: Toxicity test, strain TC5; assay type: cell-based; details: for CC50: read-out: LC50 (necessary concentration to kill 50% of the bacteria)
# Source text: (§7) Polaribacter sp. (TC5) was isolated in June 2010 in the Military Harbor of Toulon (Mediterranean Sea, France) as described in F. Brian-Jaisson, A. Ortalo-Magné, L. Guentas-Dombrowsky, F. Armougom, Y. Blache, M. Molmeret, Microb. Ecol., 2014, 68, 94-110.
# Polaribacter sp. (TC5) [13] = experiment: Anti-adhesion test, strain TC5; assay type: cell-based; details: for activity at 200 µM: 15 h; for EC50: read-out: EC50 (effective concentration to inhibit 50% of the adhesion)
# Protocol: as §1, §7
# [14] = read-out: inhibition of the adhesion of at least four marine bacterial strains
# [15] = read-out: inhibition of the adhesion of at least two marine bacterial strains
SMILES,activity at 200 µM ([1]; 200 μM) [%],EC50 [1] [µM],activity at 200 µM (Paracoccus sp. (4M6) [2]) [%],EC50 (Paracoccus sp. (4M6) [2]) [µM],activity at 200 µM [4] [%],EC50 [4] [µM],CC50 [5] [µM],"IS: LC50/EC50 (selectivity index), TC8 [5]",CC50 (Paracoccus sp. (4M6) [6]) [µM],"IS: LC50/EC50 (selectivity index), 4M6 (Paracoccus sp. (4M6) [6])","IS: LC50/EC50 (selectivity index), TC14 [7]","LC50 (necessary concentration to kill 50% of the bacteria), TC14 [7] [µM]",EC50 compared with TBTO/ZINEB [8],"inhibition at 200 µM [8, 14] [%]","inhibition at 200 µM [8, 15] [%]","IS: LC50/EC50 (selectivity index), TC11 (Shewanella sp. (TC11) [9])","LC50 (necessary concentration to kill 50% of the bacteria), TC11 (Shewanella sp. (TC11) [9]) [µM]",toxicity by LC50 values compared with TBTO/ZINEB [10],activity at 200 µM (Shewanella sp. (TC11) [11]) [%],EC50 (Shewanella sp. (TC11) [11]) [µM],also measured
"CN(C)CCCOc1ccc(CCn2cc(-c3ccc(-c4cn(CCc5ccc(OCCCN(C)C)c(Br)c5)nn4)cc3)nn2)cc1Br [AS172, 3-(4-(2-(4-(4-(1-(4-(3-(dimethylamino)propoxy)-3-bromophenethyl)-1H-1,2,3-triazol-4-yl)phenyl)-1H-1,2,3-triazol-1-yl)ethyl)-2-bromophenoxy)-N,N-dimethylpropan-1-amine]",0.5 ± 0.8,0.39 ± 0.28,5.1 ± 1.4,3.6 ± 3.8,5.3 ± 2.5,15 ± 3.3,165,10.9,82.3,22.9,576.1,224.7,comparable to that of TBTO and lower than that of ZINEB,≥ 85,≥ 65,18.9,293,less toxic than TBTO and ZINEB,4.6 ± 0.4,15.6 ± 2.9,"inhibition of the adhesion of bacterial strain TC14 ([1]; 200 μM): totally inhibit; IE % ([3]; 0.1 ppm): 40.16%; IE % ([3]; 0.3 ppm): 92.94%; IE % ([3]; 0.5 ppm): 91.11%; IE % ([3]; 2 ppm): 96.44%; IE % ([3]; 10 ppm): 98.15%; IS: LC50/EC50 (selectivity index), TC5 (Polaribacter sp. (TC5) [12]): 11.1; CC50 (Polaribacter sp. (TC5) [12]): 122 µM; activity at 200 µM (Polaribacter sp. (TC5) [13]): 12.7 ± 5.7%; EC50 (Polaribacter sp. (TC5) [13]): 11 ± 0.3 µM"
Oc1ccc(CCn2cc(CNCc3cn(CCc4ccc(O)c(Br)c4)nn3)nn2)cc1Br [NT27],29.3 ± 7.5,59.9 ± 27.2,27.8 ± 16.3,88.3 ± 46.2,28.9 ± 17,80.3 ± 18.9,,,,,,,,,≥ 65,,,,,,
"Oc1ccc(CCn2cc(-c3ccc(-c4cn(CCc5ccc(O)c(I)c5)nn4)cc3)nn2)cc1I [SA43, 1,4 bis (1-(3-iodo-4-hydroxyphenethyl)-1H-1,2,3-triazol-4-yl) benzene]",6.8 ± 1.2,20.7 ± 5.2,13.6 ± 8.9,53.8 ± 50.9,10.5 ± 12,30.3 ± 31.3,270,8.9,352,6.5,11.4,236.9,comparable to that of ZINEB,≥ 85,≥ 65,80.4,88.4,less toxic than ZINEB,4.6 ± 0.1,1.1 ± 0.6,"IS: LC50/EC50 (selectivity index), TC5 (Polaribacter sp. (TC5) [12]): 5.5; CC50 (Polaribacter sp. (TC5) [12]): 320 µM; activity at 200 µM (Polaribacter sp. (TC5) [13]): 23.8 ± 0.1%; EC50 (Polaribacter sp. (TC5) [13]): 58 ± 1.61 µM"

# — patent US10487071B2, “Bis-triazole compounds with anti-biofilm and anti-corrosion properties” (Université de Toulon, priority 2015, dated 2019)
